# Counter-ions that a name gives are not always drawn.
# Tests used:
# Conditions in all cases: exposure time 48 h
# [1] = test system: Caenorhabditis elegans N2; assay: AC50 for larval growth inhibition (Hill fit); higher = less potent
# Procedure, shortened: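 Worms were synchronised C. elegans N2 L1 larvae, 50 per well of a 96-well plate, kept 48 h at 20°C in K-medium with killed OP50, 1% DMSO and 0.5–200 µM chemical. Size was taken as COPAS Biosort extinction, log-transformed and averaged per well, using only wells with at least 10 worms. AC50 was estimated by a constrained Hill fit with weighted genetic-algorithm regression; values outside the range are censored.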
# [2] = test system: Caenorhabditis elegans N2; assay: lowest effective concentration for larval growth inhibition (size below effect threshold); higher = less potent
# Procedure, shortened: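 Worm size was taken as per-worm extinction on the Biosort, log-transformed and turned into well means. The larvae (C. elegans N2, L1 stage, 50 per 96-well) had spent 48 h at 20°C in K-medium with killed bacteria, 1% DMSO and 0.5, 1, 5, 10, 50, 100 or 200 µM chemical. The lowest effective concentration marks the first dose where the plate-adjusted mean size drops under a cutoff and remains under it at every higher dose; the cutoff is 5.665.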
# [3] = test system: Caenorhabditis elegans N2; assay: mean nematode size ln(EXT) after 48 h, plate-adjusted (DMSO control set to 6) (ln(EXT), control-adjusted); higher = larger nematodes / less growth inhibition
# Procedure, shortened: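 Worms were measured individually for extinction on the Biosort after 48 h at 20°C. They began as synchronised C. elegans N2 L1 larvae in K-medium with killed OP50, 1% DMSO and 0.5–200 µM chemical. Once debris had been removed by a growth model, values were natural-logged and averaged per well to give mean size. The plate adjustment subtracted the vehicle control mean and added 6.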
SMILES,AC50 for larval growth inhibition [1],lowest effective concentration [2],mean nematode size ln(EXT) (ln) ([3]; 0.5 µM),mean nematode size ln(EXT) (ln) ([3]; 1 µM),mean nematode size ln(EXT) (ln) ([3]; 5 µM),mean nematode size ln(EXT) (ln) ([3]; 10 µM),mean nematode size ln(EXT) (ln) ([3]; 50 µM),mean nematode size ln(EXT) (ln) ([3]; 100 µM),mean nematode size ln(EXT) (ln) ([3]; 200 µM)
CC[C@H](C)[C@@H](C(=O)O)n1sc2ccccc2c1=O,105 µM,200 µM,5.91,6.12,6.17,6.14,6.07,5.94,5.59
CNC(=S)S [Metam-sodium hydrate],191 µM,200 µM,6.25,6.2,6.21,6.3,6.43,6.13,5.52
"Cc1nn(C)c(Oc2ccccc2)c1C=NOCc1ccc(C(=O)OC(C)(C)C)cc1 [(Z,E)-Fenpyroximate]",< 0.5 µM,≤ 0.5 µM,4.99,4.67,4.2,4.2,4.09,4.05,3.39
C=CCC1=C(C)[C@@H](OC(=O)[C@@H]2[C@@H](C=C(C)C)C2(C)C)CC1=O [S-Bioallethrin],> 200 µM,50 µM,5.65,5.78,5.76,5.76,5.48,5.62,5.39
O=C(O)Cn1c(=O)n(Cc2ccc(Br)cc2F)c(=O)c2ccc(Cl)cc21 [Zenarestat],> 200 µM,200 µM,5.91,5.87,5.84,6.11,5.77,5.77,5.4
CCOC(=O)c1ccc(C2CCC(NC[C@H](O)COc3ccc(O)c(NS(C)(=O)=O)c3)CC2)cc1 (stereo partly drawn),> 200 µM,100 µM,5.91,5.88,5.77,5.77,5.7,5.57,5.48
CCC/C(=N\OCC)C1=C(O)CC(CC(C)SCC)CC1=O (stereo not drawn) [Sethoxydim],149 µM,200 µM,6.01,6.16,6.06,6,5.76,5.97,3.35
CC(=O)S[C@H](C(=O)N[C@H]1Cc2ccccc2[C@H]2CCC[C@@H](C(=O)O)N2C1=O)C(C)C [Ilepatril],> 200 µM,200 µM,5.89,5.83,5.76,5.88,5.84,5.8,5.58
COP(=S)(OC)Oc1ccc(SC)c(C)c1 [Fenthion],34.4 µM,1 µM,5.69,5.64,5.43,5.36,5.09,5.11,4.92
CCc1ccc(O)c(C(C)(C)C)c1 [2-tert-Butyl-4-ethylphenol],> 200 µM,50 µM,5.77,5.75,5.72,5.86,5.45,5.58,4.88
CCc1nc(N)nc(N)c1-c1ccc(Cl)cc1 [Pyrimethamine],> 200 µM,50 µM,5.86,5.91,6.02,5.67,5.66,5.43,4.91
CCC1(c2ccccc2)C(=O)NC(=O)NC1=O [Phenobarbital sodium salt],> 200 µM,200 µM,5.87,5.82,5.88,5.86,5.87,5.91,5.65
"CC(C)=CCC/C(C)=C\CO [cis-3,7-Dimethyl-2,6-octadien-1-ol]",> 200 µM,200 µM,5.8,5.76,5.79,5.75,5.78,5.69,5.63
CCC(C)Nc1c([N+](=O)[O-])cc(C(C)(C)C)cc1[N+](=O)[O-] (stereo not drawn) [Butralin],48.9 µM,50 µM,5.81,5.77,5.75,5.8,4.89,4.04,4.68
CC(C)N1C(=O)c2ccccc2NS1(=O)=O [Bentazone],> 200 µM,200 µM,6.05,5.93,5.96,6,6.01,6.05,5.55
COc1ccc(C(=O)Nc2nc3ccccc3c(NCc3ccccc3)c2C#N)cc1 [N-[4-(benzylamino)-3-cyanoquinolin-2-yl]-4-methoxybenzamide],> 200 µM,1 µM,5.68,5.65,5.49,5.41,5.18,4.88,4.46
CCC(C)(C)c1ccc(O)cc1 [4-(2-methylbutan-2-yl)phenol],> 200 µM,200 µM,5.8,5.81,5.74,5.76,5.75,5.92,4.97
COc1cccc(-c2ccc(/C=C\CN3CCCCCC3)cc2Cl)c1,90.6 µM,5 µM,5.88,5.69,5.61,5.5,4.98,4.39,–
O=C(NC(=O)c1c(F)cccc1F)Nc1cc(Cl)c(OC(F)(F)C(F)F)c(Cl)c1 [Hexaflumuron],> 200 µM,10 µM,5.94,5.96,5.8,5.64,5.5,5.44,4.83
CC(C)CCCCCCOC(=O)C1CCCCC1C(=O)OCCCCCCC(C)C (stereo not drawn),> 200 µM,200 µM,5.92,5.97,5.87,5.9,5.87,5.84,5.66
Nc1ccc2ccccc2c1 [2-Naphthylamine],> 200 µM,200 µM,6,5.76,5.94,5.72,5.71,5.89,5.51
O=C1c2c(O)cccc2Cc2cccc(O)c21 [Dithranol],189 µM,200 µM,5.83,5.82,5.81,5.77,5.67,5.74,4.35
CC(C)c1cccc(C(C)C)c1N1C(=O)c2ccc(O)cc2C1=O [5HPP-33],58.6 µM,50 µM,5.78,5.75,5.75,5.76,5.62,4.88,4.78

SMILES,AC50 for larval growth inhibition [1],lowest effective concentration [2],mean nematode size ln(EXT) (ln) ([3]; 0.5 µM),mean nematode size ln(EXT) (ln) ([3]; 1 µM),mean nematode size ln(EXT) (ln) ([3]; 5 µM),mean nematode size ln(EXT) (ln) ([3]; 10 µM),mean nematode size ln(EXT) (ln) ([3]; 50 µM),mean nematode size ln(EXT) (ln) ([3]; 100 µM),mean nematode size ln(EXT) (ln) ([3]; 200 µM)
CCN(CC)C(=S)SSC(=S)N(CC)CC [Disulfiram],> 200 µM,100 µM,5.96,6,6.03,5.99,5.86,5.59,4.56
COC(=O)CCCCC(=O)OC [Dimethyl adipate],> 200 µM,200 µM,5.82,5.88,5.81,5.79,5.85,5.85,5.65
C[Si](Cn1cncn1)(c1ccc(F)cc1)c1ccc(F)cc1 [Flusilazole],43.2 µM,5 µM,5.73,5.67,5.55,5.53,4.57,3.63,3.47
CCCCOC(=O)C(C)Oc1ccc(Oc2ccc(C(F)(F)F)cn2)cc1 (stereo not drawn) [Fluazifop-butyl],191 µM,100 µM,6.21,6.17,6.11,6.18,5.87,5.5,4.66
CCOP(=O)(OCC)Oc1nc(Cl)c(Cl)cc1Cl [Chlorpyrifos oxon],1.24 µM,≤ 0.5 µM,4.98,4.42,4.26,4.05,3.47,3.24,3.15
O=C(O)c1ccccc1-n1cc(C(=O)O)c(=O)c2cc(Nc3c(F)cc(F)cc3Cl)c(Cl)cc21,> 200 µM,200 µM,5.87,5.89,5.95,5.9,5.94,5.85,5.63
Nc1c(Cl)cc([N+](=O)[O-])cc1Cl [Dichloran],14.4 µM,50 µM,6.01,5.9,5.93,5.73,4.94,4.92,4.96
"CC1(C)C(=O)N(Br)C(=O)N1Br [1,3-Dibromo-5,5-dimethylhydantoin]",> 200 µM,200 µM,5.7,5.78,5.81,5.86,5.87,5.87,5.61
COc1nn(CSP(=S)(OC)OC)c(=O)s1 [Methidathion],> 200 µM,1 µM,5.74,5.62,5.48,5.52,5.57,5.38,4.52
NC(=O)N1C(=O)C(C(=O)c2cc(Cl)cs2)c2cc(F)c(Cl)cc21 (stereo not drawn),1.41 µM,≤ 0.5 µM,5.49,4.96,4.54,4.37,4.04,4.02,–
CN(C)CCOC(c1ccccc1)c1ccccc1 [Diphenhydramine hydrochloride],> 200 µM,200 µM,5.87,5.9,5.91,5.91,5.78,5.78,5.39
O=c1[nH]c2ccc([S+]([O-])CCN3CCC(Cc4ccc(F)cc4)CC3)cc2o1 (stereo not drawn) [Besonprodil],> 200 µM,200 µM,5.75,6,5.87,5.9,5.87,5.82,5.31
CCCSP(=O)(OCC)SCCC [Ethoprop],76.3 µM,10 µM,5.83,5.78,5.68,5.55,4.81,4.35,4.19
OCCO [Ethylene glycol],> 200 µM,100 µM,5.79,5.77,5.77,5.78,5.72,5.63,5.65
"C=C(C)C(=O)OCCC(F)(F)C(F)(F)C(F)(F)C(F)(F)C(F)(F)C(F)(F)F [3,3,4,4,5,5,6,6,7,7,8,8,8-Tridecafluorooctyl methacrylate]",23 µM,50 µM,5.88,5.84,5.84,5.73,5.6,5.45,5.57
COc1ccc2cc(S(=O)(=O)N[C@H](CC(=O)N[C@H](Cc3ccc(CN4[C@H](C)CCC[C@@H]4C)cc3)C(=O)N(C)C(C)C)c3ccc4c(c3)OCO4)ccc2c1,> 200 µM,100 µM,5.87,5.8,5.85,5.73,5.76,5.43,4.99
CCc1cccc(C)c1N(C(=O)CCl)C(C)COC (stereo not drawn) [Metolachlor],> 200 µM,50 µM,5.64,5.7,5.74,5.81,5.63,5.63,5.64
O=C(N[C@@H](Cc1ccccc1)[C@@H](O)C(=O)N1C[C@@H](O)[C@@H](O)C1)c1cc2cc(Cl)ccc2[nH]1 [Ingliforib],> 200 µM,100 µM,5.94,5.79,5.75,5.85,5.79,5.46,5.44
CCOP(=O)(NC(C)C)Oc1ccc(SC)c(C)c1 (stereo not drawn) [Fenamiphos],90.9 µM,≤ 0.5 µM,5.54,5.56,5.32,5.31,4.93,4.49,4.15
C=CCc1ccc2c(c1)OCO2 [Safrole],188 µM,200 µM,6.12,6.08,5.92,6.02,5.96,6.05,5.62
CC(C)(C)C(O)C(Oc1ccc(Cl)cc1)n1cncn1 (stereo not drawn) [Triadimenol],> 200 µM,200 µM,5.84,5.88,5.9,5.93,5.79,5.95,5.59
O=C(O)C(F)(F)C(F)(F)C(F)(F)C(F)(F)C(F)(F)C(F)(F)C(F)(F)C(F)(F)C(F)(F)F [Perfluorodecanoic acid],14.6 µM,5 µM,5.85,5.87,5.14,4.6,4.06,3.96,3.16

# From the supplement of paper PMC4858399
